These results are taken from patent publication US9006173B2, “Microcystins as agents for treatment of cancer” (priority 2006, dated 2015).

The subject of data set [1] is pIRESneo2 (control plasmid) transfected HeLa cells. The data set is described as follows: cells. Format: cell-based.
In data set [2] the test system is OATP1B1 transfected HeLa cells. It is filed as cell-based.
The subject of data set [3] is pIRESneo2 transfected HeLa cells. Format: cell-based.
Data set [4] relates to HeLa cells transfected with pIRESneo2. Format: cell-based.
In a further data set the target is PP1 (Homo sapiens, UniProt P62136). As to conditions: read-out: Reported Ki PP1; cited from earlier work.
For data set [5], the system named is total phosphatase activity in OATP1B1-transfected HeLa cells. It is filed as cell-based.
For data set [6], the system named is OATP1B1-expressing HeLa xenografts. Also noted: species or system athymic nude mice. Particulars: mouse, in vivo, ip.
For a further data set, the target named is PP2A (Homo sapiens, UniProt P67775). Particulars: cited from earlier work.
Data set [7] deals with OATP1B1-transfected HeLa cells.
For data set [8] the following is noted: mouse, in vivo; cited from earlier work.
Data set [9] relates to OATP1B3-transfected HeLa cells.
On the set-up of data set [10]: species or system athymic nude mice. As to conditions: mouse, in vivo, ip.
Data set [11] has as its system total phosphatase activity in OATP1B3-transfected HeLa cells. Format: cell-based.
Another data set has as its target purified PP1 (Oryctolagus cuniculus, UniProt P62139). Description: biochemical.
For a further data set, the system named is OATP1B3. Description: in vitro. Particulars: human.
For another data set, the system named is OATP1B1. The data set is described as follows: in vitro. Particulars: human.
Another data set concerns the target T1, purified PP2A (Homo sapiens, UniProt P67775).
T1 construct: purchased Upstate Cell Signaling Solutions, NY
Description: biochemical. Particulars: [33P]-MyBP substrate, 10 min pre-incubation, mean±SD; read-out: Enzyme Inhibition PP2A IC50.

[12] abbreviates: read-out: Growth Inhibition pIRESneo2 IC50.
Setting [13] is: read-out: Growth inhibition: toxicity not reached / no cytotoxicity up to stated concentration in control cells.
Where [14] appears, read: read-out: Growth Inhibition OATP1B1 IC50.
The mark [15] stands for this setting: read-out: Growth Inhibition OATP1B3 IC50.

Each structure is given as a SMILES string. Read-outs that look alike come from different tables or passages of the source. Numbered stars: 1 amine (or outer) side, 2 acyl side, 3 side chain; on linkers, the order of the positions; unused ones are H or OH. Bridge positions count the residues as written; N and C are the ends. Square brackets hold non-standard residues; d marks the D form. Peptide text beside a SMILES is read from it. Adda = CO[C@@H](Cc1ccccc1)[C@@H](C)/C=C(C)/C=C/[C@H](N[*:1])[C@H](C)C(=O)[*:2]; dAsp(3S-Me) = C[C@H](C(=O)[*:3])[C@@H](N[*:1])C(=O)[*:2]; d(γGlu) = O=C(O)[C@@H](CCC(=O)[*:2])N[*:1]; NMeDha = C=C(NC)C(=O)O

PP2A, sequence (P67775 whole entry): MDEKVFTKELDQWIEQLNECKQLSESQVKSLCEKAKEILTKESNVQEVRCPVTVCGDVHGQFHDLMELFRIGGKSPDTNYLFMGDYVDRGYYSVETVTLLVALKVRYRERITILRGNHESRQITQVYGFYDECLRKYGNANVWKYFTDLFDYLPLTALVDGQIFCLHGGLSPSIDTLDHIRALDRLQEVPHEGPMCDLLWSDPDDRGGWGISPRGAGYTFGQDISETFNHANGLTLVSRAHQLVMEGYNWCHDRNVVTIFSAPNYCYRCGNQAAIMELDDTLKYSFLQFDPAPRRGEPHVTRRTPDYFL
PP1, sequence (P62136 whole entry): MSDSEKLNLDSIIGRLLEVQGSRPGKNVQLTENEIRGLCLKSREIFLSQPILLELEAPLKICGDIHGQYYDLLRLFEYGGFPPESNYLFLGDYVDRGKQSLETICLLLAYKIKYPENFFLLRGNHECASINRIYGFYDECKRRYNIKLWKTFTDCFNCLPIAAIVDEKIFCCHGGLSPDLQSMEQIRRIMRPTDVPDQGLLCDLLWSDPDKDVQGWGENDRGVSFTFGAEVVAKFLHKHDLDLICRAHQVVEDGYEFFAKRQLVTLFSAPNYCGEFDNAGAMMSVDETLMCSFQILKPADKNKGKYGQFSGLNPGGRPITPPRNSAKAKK
purified PP1, sequence (P62139 whole entry): as the sequence (P62136 whole entry) above
T1 sequence (P67775 whole entry): as the sequence (P67775 whole entry) above
T1 sequence (P30153 2-589, further chain): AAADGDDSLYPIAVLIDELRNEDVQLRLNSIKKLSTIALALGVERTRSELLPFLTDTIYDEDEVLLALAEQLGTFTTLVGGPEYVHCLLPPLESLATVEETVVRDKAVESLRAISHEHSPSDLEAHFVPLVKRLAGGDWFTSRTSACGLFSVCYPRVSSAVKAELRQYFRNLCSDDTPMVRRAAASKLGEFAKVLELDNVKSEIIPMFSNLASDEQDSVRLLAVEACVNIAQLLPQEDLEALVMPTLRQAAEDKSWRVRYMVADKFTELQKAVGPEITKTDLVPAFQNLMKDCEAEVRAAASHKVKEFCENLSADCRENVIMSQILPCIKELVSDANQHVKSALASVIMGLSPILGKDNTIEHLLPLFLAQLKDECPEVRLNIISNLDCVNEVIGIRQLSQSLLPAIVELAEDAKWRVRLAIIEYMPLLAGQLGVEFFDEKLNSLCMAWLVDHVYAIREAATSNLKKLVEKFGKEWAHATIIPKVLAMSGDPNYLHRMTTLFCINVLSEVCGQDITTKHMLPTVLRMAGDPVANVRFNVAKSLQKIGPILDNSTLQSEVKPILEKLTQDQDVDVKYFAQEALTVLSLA

Consider `C=C1C(=O)N[C@H](C)C(=O)N[C@@H](CC(C)C)C(=O)N[C@@H](C(=O)O)[C@H](C)C(=O)N[C@@H](CCCNC(=N)N)C(=O)N[C@@H](/C=C/C(C)=C/[C@H](C)[C@H](Cc2ccccc2)OC)[C@H](C)C(=O)N[C@@H](C(=O)O)CCC(=O)N1C` [Microcystin LR, microcystin LR] (R[Adda][d(γGlu)][NMeDha][dA]L[dAsp(3S-Me)]-OH; lactam N-7), for which the IC50 in data set [1] (setting [12]) is more than 10000 nM; in data set [1] (setting [13]) it was more than 10000 nM; in data set [7] (setting [14]), 5 nM; in data set [7] (read-out: Growth inhibition IC50 in presence of BSP, OATP1B1), approximately 5000 nM; in [9] (setting [15]), 39 nM; in data set [9] (read-out: Growth inhibition IC50 in presence of BSP, OATP1B3) it was approximately 5000 nM. In addition, the “Cell and nuclear morphology changes” value in [2] was “membrane blebbing”; in [3], “no changes in cellular morphology”. The “Clonogenic assay toxicity in vector alone cells” value in [4] is listed as “no toxicity”. In addition, the Ki on PP1 was 0.06 to 6 nM; on PP2A (read-out: Reported Ki PP2A), 0.01 to 2 nM. The “Decrease of total phosphatase activity” value in [5] is on record as “approximately 30%”. Moreover, the “Average tumor volume, % of control” value in data set [6] is 49 % of control. For the same molecule, the “Growth inhibition activity after 1 hour exposure” value in data set [7] was “less active”. The “Share of total dose accumulating in the liver” value in data set [8] is given as 70%. Besides, the “Body weight day 0, daily cohort” value in [10] was 22.8±2.7 grams. Further, the “Body weight day 0, every other day cohort” value in [10] came to 21.6±0.8 grams. The “Body weight day 18, daily cohort” value in data set [10] was 19.0±1.2 grams. Besides, the “Body weight day 18, every other day cohort” value in [10] is recorded as 22.3±2.4 grams.
As for `C=C1C(=O)N[C@H](C)C(=O)N[C@@H](CC(C)C)C(=O)N[C@@H](C(=O)O)[C@H](C)C(=O)N[C@@H](Cc2c[nH]c3ccccc23)C(=O)N[C@@H](/C=C/C(C)=C/[C@H](C)[C@H](Cc2ccccc2)OC)[C@H](C)C(=O)N[C@@H](C(=O)O)CCC(=O)N1C` [Microcystin LW, microcystin LW] (W[Adda][d(γGlu)][NMeDha][dA]L[dAsp(3S-Me)]-OH; lactam N-7), the IC50 was more than 1000 nM in [1] (setting [12]) and 0.5 ± 0.4 nM in data set [9] (setting [15]). The “Effect on total phosphatase activity” value in data set [11] is listed as “no discernable effect”.
In the case of `C=C1C(=O)N[C@H](C)C(=O)N[C@@H](Cc2ccc(O)cc2)C(=O)N[C@@H](C(=O)O)[C@H](C)C(=O)N[C@@H](CCCNC(=N)N)C(=O)N[C@@H](/C=C/C(C)=C/[C@H](C)[C@H](Cc2ccccc2)OC)[C@H](C)C(=O)N[C@@H](C(=O)O)CCC(=O)N1C` [Microcystin YR, microcystin YR] (R[Adda][d(γGlu)][NMeDha][dA]Y[dAsp(3S-Me)]-OH; lactam N-7), the IC50 in data set [1] (setting [12]) was more than 1000 nM; in data set [7] (setting [14]), 90 ± 20 nM; in data set [9] (setting [15]) it was 45 ± 30 nM.
With `C=C1C(=O)N[C@H](C)C(=O)N[C@@H](CC(C)C)C(=O)N[C@@H](C(=O)O)[C@H](C)C(=O)N[C@@H](Cc2ccccc2)C(=O)N[C@@H](/C=C/C(C)=C/[C@H](C)[C@H](Cc2ccccc2)OC)[C@H](C)C(=O)N[C@@H](C(=O)O)CCC(=O)N1C` [Microcystin LF, microcystin LF] (F[Adda][d(γGlu)][NMeDha][dA]L[dAsp(3S-Me)]-OH; lactam N-7), the figures for the IC50 in data set [1] (setting [12]) and in data set [9] (setting [15]) were more than 1000 nM and 0.9 ± 0.9 nM, respectively. The “Effect on total phosphatase activity” value in data set [11] is recorded as “no discernable effect”.
As for `C=C1C(=O)N[C@H](C)C(=O)N[C@@H](CCCNC(=N)N)C(=O)N[C@@H](C(=O)O)[C@H](C)C(=O)N[C@@H](CCCNC(=N)N)C(=O)N[C@@H](/C=C/C(C)=C/[C@H](C)[C@H](Cc2ccccc2)OC)[C@H](C)C(=O)N[C@@H](C(=O)O)CCC(=O)N1C` [Microcystin RR, microcystin RR] (R[Adda][d(γGlu)][NMeDha][dA]R[dAsp(3S-Me)]-OH; lactam N-7), the IC50 in data set [1] (setting [12]) was more than 10000 nM; in [1] (setting [13]), more than 10000 nM; in data set [7] (read-out: Growth inhibition IC50 OATP1B1), 3800 ± 2300 nM; in data set [9] (read-out: Growth inhibition IC50 OATP1B3) it was 580 ± 400 nM. Besides, the “Decrease of total phosphatase activity” value in [11] is 90%.
Consider `C=C1[C@@H](O)[C@@H]2O[C@]3(CC[C@H](/C=C/[C@@H](C)[C@@H]4CC(C)=C[C@@]5(O[C@H](C[C@@](C)(O)C(=O)O)CC[C@H]5O)O4)O3)CC[C@H]2O[C@@H]1[C@@H](O)C[C@H](C)[C@H]1O[C@@]2(CCCCO2)CC[C@H]1C` [Okadaic acid], for which the IC50 in [1] (Homo sapiens, HeLa, 72 h exposure, SRB dye assay, mean±SD, read-out: Growth Inhibition pIRESneo2 IC50) was 7.8 ± 1.5 nM; at purified PP1, 90 ± 17 nM; with OATP1B3, 3 ± 1.2 nM; at PP2A (literature (18), read-out: Reported IC50 PP2A), 15 to 70 nM; in the data set with OATP1B1, 2.2 ± 0.6 nM; at purified PP2A it was 0.4 ± 0.18 nM.
